Consider 26 compounds from ChEMBL document CHEMBL1158378, “QSAR model for predicting radical scavenging activity of di(hetero)arylamines derivatives of benzo[b]thiophenes” (Eur J Med Chem, 2009).

The first assay deals with Radical scavenging activity. Description: Antioxidant activity assessed as inhibition of DPPH radical formation by Hatano's method. Format: functional.
With `COc1ccc(Nc2cc3sc(C)c(C)c3cc2C)cc1`, the pEC50 is recorded as 4.14.
Still for that read-out and setting: the same measure for `COc1ccc(Nc2c(C(=O)O)sc3ccccc23)c(OC)c1`: 3.61.
Same read-out and setting: the same measure for `COc1ccc(Nc2cccc3c(C)c(C)sc23)cc1OC`: 4.26; for `COc1ccc(Nc2cc3sc(C)c(C)c3cc2C)cc1OC`: 4.3.
Regarding `CCOC(=O)c1sc2ccccc2c1Nc1ccc(OC)cc1OC`, the pEC50 stood at 3.77.
For the compound `Cc1sc2c(Nc3cccnc3)cccc2c1C`, the pEC50 worked out at 2.5.
`Cc1sc2c(Nc3ccccn3)cccc2c1C`: the pEC50 is on record as 2.26.
The same measure, in the same setting: then `COc1ccc(Nc2cccc3c(C)c(C)sc23)cc1`, with 4.3; and `COc1cccc(Nc2cccc3c(C)c(C)sc23)c1`, with 2.81; and `CCOC(=O)c1sc2ccccc2c1Nc1ccc(O)cc1O`, with 3.84.
`Fc1ccccc1Nc1csc2ccccc12`: the pEC50 stood at 3.81.
Take `Cc1sc2c(Nc3cccc(C#N)c3)cccc2c1C`: the pEC50 amounted to 1.84.

A further assay relates to Radical scavenging activity. Description: Antioxidant activity assessed as inhibition of DPPH radical formation. Format: functional.
For `Cc1sc2c(C)c(Nc3ccc(C#N)cc3)cc(C)c2c1C`, the pEC50 turned out to be 2.29.
As for `COc1ccc(Nc2cc(C)c3c(C)c(C)sc3c2C)c(Br)c1`, the pEC50 is 3.98.
As to `COc1ccc(Nc2csc3ccccc23)c(OC)c1`, the pEC50 was 4.06.
Still for that read-out and setting: then `Cc1cc2c(C)c(C)sc2cc1Nc1ccccc1Br`, with 3.05.
Turning to `COc1ccc(Nc2cc3sc(C)c(C)c3cc2C)c(Br)c1`, the pEC50 worked out at 3.69.
`Cc1sc2c(C)c(Nc3ccccn3)cc(C)c2c1C`: the pEC50 turned out to be 2.1.
For the compound `COc1ccc(Nc2cc3sc(C)c(C)c3cc2C)c(OC)c1`, the pEC50 stood at 4.07.
Still for that read-out and setting: then `COc1cc(Br)c(Nc2cc3sc(C)c(C)c3cc2C)cc1OC`, with 3.81; and `Cc1sc2c(C)c(Nc3ccccc3Br)cc(C)c2c1C`, with 2.43.
In the case of `COc1ccc(Nc2cc(C)c3c(C)c(C)sc3c2C)cc1`, the pEC50 worked out at 3.89.
Turning to `CCOC(=O)c1sc2ccccc2c1Nc1ccccc1O`, the pEC50 was 3.91.
Still for that read-out and setting: the same measure for `Cc1cc2c(C)c(C)sc2cc1Nc1ccccc1I`: 2.91; for `Cc1cc2c(C)c(C)sc2cc1Nc1ccc(C=O)cc1`: 2.39; for `COc1cccc(Nc2cc3sc(C)c(C)c3cc2C)c1`: 3.38.
